Data from patent publication US9738634B2, “Heterocyclic amide compound and herbicide” (SYNGENTA PARTICIPATIONS AG, priority 2013, dated 2017).

Assays:
Type in all cases: in vivo
[1] = system: transplanted rice; assay: Test Example 1: preemergent weed treatment in the submerged state, effect on crop; a: transplanted rice
Procedure, shortened: (§1)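 Pots of alluvial soil flooded 4 cm deep, sown with barnyard grass, bulrush and oval-leafed pondweed and transplanted with 2.5-leaf rice. Emulsified compound applied to the water surface on sowing day at stated g/ha; greenhouse 25–30 °C, effects assessed 3 weeks after treatment.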

[2] = system: oval-leafed pondweed; assay: Test Example 1: weedkilling efficacy, preemergent weed treatment in the submerged state; C: oval-leafed pondweed
Procedure, shortened: as §1

[3] = system: barnyard grass; assay: Test Example 2: weedkilling efficacy, growth period weed treatment in the submerged state; A: barnyard grass
Procedure, shortened: (§2)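 Barnyard grass, bulrush and oval-leafed pondweed sown in alluvial soil under 4 cm flooding, greenhouse 25 to 30° C. At 1-2 leaf stage, water-diluted emulsion applied to the water surface at stated g/ha dosages; effects scored 3 weeks later.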

[4] = system: bulrush; assay: Test Example 2: weedkilling efficacy, growth period weed treatment in the submerged state; B: bulrush
Procedure, shortened: as §2

[5] = system: barnyard grass; assay: Test Example 1: weedkilling efficacy, preemergent weed treatment in the submerged state; A: barnyard grass
Procedure, shortened: as §1

[6] = system: oval-leafed pondweed; assay: Test Example 2: weedkilling efficacy, growth period weed treatment in the submerged state; C: oval-leafed pondweed
Procedure, shortened: as §2

[7] = system: bulrush; assay: Test Example 1: weedkilling efficacy, preemergent weed treatment in the submerged state; B: bulrush
Procedure, shortened: as §1

Cc1cc(NC(=O)C(C)(C)N2COCN(c3ccccc3)C2=O)nc(C(F)(F)F)c1 [A-2-57]
a: transplanted rice, effect on crop grade ([1]; treatment dosage 320 g/ha): 0 (weed kill ratio 5% or less (practically no effect)) | C: oval-leafed pondweed, weed kill grade ([2]; treatment dosage 320 g/ha): 5 (weed kill ratio 90% or more, (practically complete withering)) | A (barnyard grass) weedkilling efficacy grade ([3]; treatment dosage 320 g/ha): 5 (weed kill ratio 90% or more, (practically complete withering)) | B (bulrush) weedkilling efficacy grade ([4]; treatment dosage 320 g/ha): 5 (weed kill ratio 90% or more, (practically complete withering)) | A: barnyard grass, weed kill grade ([5]; treatment dosage 320 g/ha): 5 (weed kill ratio 90% or more, (practically complete withering)) | C (oval-leafed pondweed) weedkilling efficacy grade ([6]; treatment dosage 320 g/ha): 5 (weed kill ratio 90% or more, (practically complete withering)) | B: bulrush, weed kill grade ([7]; treatment dosage 320 g/ha): 5 (weed kill ratio 90% or more, (practically complete withering))

CC(C)(C(=O)Nc1cc(C(F)(F)F)ccn1)N1COCN(c2ccccc2)C1=O [A-2-42]
a: transplanted rice, effect on crop grade ([1]; treatment dosage 252 g/ha): 4 (weed kill ratio 70% or more, less than 90%) | C: oval-leafed pondweed, weed kill grade ([2]; treatment dosage 252 g/ha): 5 (weed kill ratio 90% or more, (practically complete withering)) | A (barnyard grass) weedkilling efficacy grade ([3]; treatment dosage 252 g/ha): 5 (weed kill ratio 90% or more, (practically complete withering)) | B (bulrush) weedkilling efficacy grade ([4]; treatment dosage 252 g/ha): 5 (weed kill ratio 90% or more, (practically complete withering)) | A: barnyard grass, weed kill grade ([5]; treatment dosage 252 g/ha): 5 (weed kill ratio 90% or more, (practically complete withering)) | C (oval-leafed pondweed) weedkilling efficacy grade ([6]; treatment dosage 252 g/ha): 5 (weed kill ratio 90% or more, (practically complete withering)) | B: bulrush, weed kill grade ([7]; treatment dosage 252 g/ha): 5 (weed kill ratio 90% or more, (practically complete withering))

CC(C(=O)Nc1cc(Cl)cc(Cl)n1)N1COCN(c2ccccc2)C1=O (racemic) [A-7-01]
a: transplanted rice, effect on crop grade ([1]; treatment dosage 1000 g/ha): 0 (weed kill ratio 5% or less (practically no effect)) | C: oval-leafed pondweed, weed kill grade ([2]; treatment dosage 1000 g/ha): 4 (weed kill ratio 70% or more, less than 90%) | A (barnyard grass) weedkilling efficacy grade ([3]; treatment dosage 1000 g/ha): 3 (weed kill ratio 40% or more, less than 70%) | B (bulrush) weedkilling efficacy grade ([4]; treatment dosage 1000 g/ha): 5 (weed kill ratio 90% or more, (practically complete withering)) | A: barnyard grass, weed kill grade ([5]; treatment dosage 1000 g/ha): 5 (weed kill ratio 90% or more, (practically complete withering)) | C (oval-leafed pondweed) weedkilling efficacy grade ([6]; treatment dosage 1000 g/ha): 1 (weed kill ratio 5% or more, less than 20%) | B: bulrush, weed kill grade ([7]; treatment dosage 1000 g/ha): 5 (weed kill ratio 90% or more, (practically complete withering))

CC1=C(c2ccccc2)C(=O)N(C(C)(C)C(=O)Nc2cc(Oc3ccccc3)cc(Cl)n2)CO1 [B-2-48]
a (transplanted rice) effect on crop grade ([1]; treatment dosage 266 g/ha): 0 (weed kill ratio 5% or less (practically no effect)) | C (oval-leafed pondweed) weedkilling efficacy grade ([2]; treatment dosage 266 g/ha): 4 (weed kill ratio 70% or more, less than 90%) | A (barnyard grass) weedkilling efficacy grade ([3]; treatment dosage 266 g/ha): 0 (weed kill ratio 5% or less (practically no effect)) | B (bulrush) weedkilling efficacy grade ([4]; treatment dosage 266 g/ha): 2 (weed kill ratio 20% or more, less than 40%) | A (barnyard grass) weedkilling efficacy grade ([5]; treatment dosage 266 g/ha): 5 (weed kill ratio 90% or more, (practically complete withering)) | C (oval-leafed pondweed) weedkilling efficacy grade ([6]; treatment dosage 266 g/ha): 0 (weed kill ratio 5% or less (practically no effect)) | B (bulrush) weedkilling efficacy grade ([7]; treatment dosage 266 g/ha): 5 (weed kill ratio 90% or more, (practically complete withering))

Cc1cccc(N2COCN(C(C)(C)C(=O)Nc3cc(C(F)(F)F)ccn3)C2=O)c1 [A-6-07]
a: transplanted rice, effect on crop grade ([1]; treatment dosage 320 g/ha): 1 (weed kill ratio 5% or more, less than 20%) | C: oval-leafed pondweed, weed kill grade ([2]; treatment dosage 320 g/ha): 5 (weed kill ratio 90% or more, (practically complete withering)) | A (barnyard grass) weedkilling efficacy grade ([3]; treatment dosage 320 g/ha): 4 (weed kill ratio 70% or more, less than 90%) | B (bulrush) weedkilling efficacy grade ([4]; treatment dosage 320 g/ha): 5 (weed kill ratio 90% or more, (practically complete withering)) | A: barnyard grass, weed kill grade ([5]; treatment dosage 320 g/ha): 5 (weed kill ratio 90% or more, (practically complete withering)) | C (oval-leafed pondweed) weedkilling efficacy grade ([6]; treatment dosage 320 g/ha): 3 (weed kill ratio 40% or more, less than 70%) | B: bulrush, weed kill grade ([7]; treatment dosage 320 g/ha): 5 (weed kill ratio 90% or more, (practically complete withering))

CC1=C(c2ccccc2)C(=O)N(C(C)(C)C(=O)Nc2cc(Cl)cc(-c3ccccc3)n2)CO1 [B-2-45]
a (transplanted rice) effect on crop grade ([1]; treatment dosage 320 g/ha): 2 (weed kill ratio 20% or more, less than 40%) | C (oval-leafed pondweed) weedkilling efficacy grade ([2]; treatment dosage 320 g/ha): 4 (weed kill ratio 70% or more, less than 90%) | A (barnyard grass) weedkilling efficacy grade ([3]; treatment dosage 320 g/ha): 4 (weed kill ratio 70% or more, less than 90%) | B (bulrush) weedkilling efficacy grade ([4]; treatment dosage 320 g/ha): 2 (weed kill ratio 20% or more, less than 40%) | A (barnyard grass) weedkilling efficacy grade ([5]; treatment dosage 320 g/ha): 5 (weed kill ratio 90% or more, (practically complete withering)) | C (oval-leafed pondweed) weedkilling efficacy grade ([6]; treatment dosage 320 g/ha): 4 (weed kill ratio 70% or more, less than 90%) | B (bulrush) weedkilling efficacy grade ([7]; treatment dosage 320 g/ha): 5 (weed kill ratio 90% or more, (practically complete withering))

CC(C)(C(=O)Nc1cc(Cl)cc(Br)n1)N1COCN(c2c(F)cccc2F)C1=O [A-6-02]
a: transplanted rice, effect on crop grade ([1]; treatment dosage 252 g/ha): 0 (weed kill ratio 5% or less (practically no effect)) | C: oval-leafed pondweed, weed kill grade ([2]; treatment dosage 252 g/ha): 5 (weed kill ratio 90% or more, (practically complete withering)) | A (barnyard grass) weedkilling efficacy grade ([3]; treatment dosage 252 g/ha): 5 (weed kill ratio 90% or more, (practically complete withering)) | B (bulrush) weedkilling efficacy grade ([4]; treatment dosage 252 g/ha): 5 (weed kill ratio 90% or more, (practically complete withering)) | A: barnyard grass, weed kill grade ([5]; treatment dosage 252 g/ha): 5 (weed kill ratio 90% or more, (practically complete withering)) | C (oval-leafed pondweed) weedkilling efficacy grade ([6]; treatment dosage 252 g/ha): 5 (weed kill ratio 90% or more, (practically complete withering)) | B: bulrush, weed kill grade ([7]; treatment dosage 252 g/ha): 5 (weed kill ratio 90% or more, (practically complete withering))

Cc1ccc(N2COCN(C(C)(C)C(=O)Nc3cc(Cl)cc(Cl)n3)C2=O)cc1 [A-6-12]
a: transplanted rice, effect on crop grade ([1]; treatment dosage 320 g/ha): 2 (weed kill ratio 20% or more, less than 40%) | C: oval-leafed pondweed, weed kill grade ([2]; treatment dosage 320 g/ha): 5 (weed kill ratio 90% or more, (practically complete withering)) | A (barnyard grass) weedkilling efficacy grade ([3]; treatment dosage 320 g/ha): 4 (weed kill ratio 70% or more, less than 90%) | B (bulrush) weedkilling efficacy grade ([4]; treatment dosage 320 g/ha): 5 (weed kill ratio 90% or more, (practically complete withering)) | A: barnyard grass, weed kill grade ([5]; treatment dosage 320 g/ha): 5 (weed kill ratio 90% or more, (practically complete withering)) | C (oval-leafed pondweed) weedkilling efficacy grade ([6]; treatment dosage 320 g/ha): 5 (weed kill ratio 90% or more, (practically complete withering)) | B: bulrush, weed kill grade ([7]; treatment dosage 320 g/ha): 5 (weed kill ratio 90% or more, (practically complete withering))

CC(C)(C(=O)Nc1cc(Cl)cc(Cl)n1)N1COCN(c2ccccc2)C1=S [A-2-18]
a: transplanted rice, effect on crop grade ([1]; treatment dosage 320 g/ha): 0 (weed kill ratio 5% or less (practically no effect)) | C: oval-leafed pondweed, weed kill grade ([2]; treatment dosage 320 g/ha): 5 (weed kill ratio 90% or more, (practically complete withering)) | A (barnyard grass) weedkilling efficacy grade ([3]; treatment dosage 320 g/ha): 5 (weed kill ratio 90% or more, (practically complete withering)) | B (bulrush) weedkilling efficacy grade ([4]; treatment dosage 320 g/ha): 5 (weed kill ratio 90% or more, (practically complete withering)) | A: barnyard grass, weed kill grade ([5]; treatment dosage 320 g/ha): 5 (weed kill ratio 90% or more, (practically complete withering)) | C (oval-leafed pondweed) weedkilling efficacy grade ([6]; treatment dosage 320 g/ha): 5 (weed kill ratio 90% or more, (practically complete withering)) | B: bulrush, weed kill grade ([7]; treatment dosage 320 g/ha): 5 (weed kill ratio 90% or more, (practically complete withering))

CC(C)(C(=O)Nc1cc(Cl)cnc1Cl)N1COCN(c2ccccc2)C1=O [A-3-06]
a: transplanted rice, effect on crop grade ([1]; treatment dosage 252 g/ha): 1 (weed kill ratio 5% or more, less than 20%) | C: oval-leafed pondweed, weed kill grade ([2]; treatment dosage 252 g/ha): 4 (weed kill ratio 70% or more, less than 90%) | A (barnyard grass) weedkilling efficacy grade ([3]; treatment dosage 252 g/ha): 3 (weed kill ratio 40% or more, less than 70%) | B (bulrush) weedkilling efficacy grade ([4]; treatment dosage 252 g/ha): 4 (weed kill ratio 70% or more, less than 90%) | A: barnyard grass, weed kill grade ([5]; treatment dosage 252 g/ha): 5 (weed kill ratio 90% or more, (practically complete withering)) | C (oval-leafed pondweed) weedkilling efficacy grade ([6]; treatment dosage 252 g/ha): 2 (weed kill ratio 20% or more, less than 40%) | B: bulrush, weed kill grade ([7]; treatment dosage 252 g/ha): 5 (weed kill ratio 90% or more, (practically complete withering))

CC(C)(C(=O)Nc1cc(Oc2ccccc2)ccn1)N1COCN(c2ccccc2)C1=O [A-2-55]
a: transplanted rice, effect on crop grade ([1]; treatment dosage 234 g/ha): 0 (weed kill ratio 5% or less (practically no effect)) | C: oval-leafed pondweed, weed kill grade ([2]; treatment dosage 234 g/ha): 5 (weed kill ratio 90% or more, (practically complete withering)) | A (barnyard grass) weedkilling efficacy grade ([3]; treatment dosage 234 g/ha): 0 (weed kill ratio 5% or less (practically no effect)) | B (bulrush) weedkilling efficacy grade ([4]; treatment dosage 234 g/ha): 2 (weed kill ratio 20% or more, less than 40%) | A: barnyard grass, weed kill grade ([5]; treatment dosage 234 g/ha): 5 (weed kill ratio 90% or more, (practically complete withering)) | C (oval-leafed pondweed) weedkilling efficacy grade ([6]; treatment dosage 234 g/ha): 5 (weed kill ratio 90% or more, (practically complete withering)) | B: bulrush, weed kill grade ([7]; treatment dosage 234 g/ha): 5 (weed kill ratio 90% or more, (practically complete withering))

Cc1ccc(N2COCN(C(C)(C)C(=O)Nc3cc(C(F)(F)F)ccn3)C2=O)cc1Cl [A-6-04]
a: transplanted rice, effect on crop grade ([1]; treatment dosage 320 g/ha): 0 (weed kill ratio 5% or less (practically no effect)) | C: oval-leafed pondweed, weed kill grade ([2]; treatment dosage 320 g/ha): 2 (weed kill ratio 20% or more, less than 40%) | A (barnyard grass) weedkilling efficacy grade ([3]; treatment dosage 320 g/ha): 1 (weed kill ratio 5% or more, less than 20%) | B (bulrush) weedkilling efficacy grade ([4]; treatment dosage 320 g/ha): 2 (weed kill ratio 20% or more, less than 40%) | A: barnyard grass, weed kill grade ([5]; treatment dosage 320 g/ha): 4 (weed kill ratio 70% or more, less than 90%) | C (oval-leafed pondweed) weedkilling efficacy grade ([6]; treatment dosage 320 g/ha): 0 (weed kill ratio 5% or less (practically no effect)) | B: bulrush, weed kill grade ([7]; treatment dosage 320 g/ha): 4 (weed kill ratio 70% or more, less than 90%)
